Literature values in PMC9924909 (Brain, 2022).
Like-named read-outs stand apart in the source and are kept apart here.

Assays:
[1] = cited from earlier work
patients with GD3 = conditions: cited from earlier work

Structure (SMILES) | distribution to the brain [1] | effect on neurological symptoms (patients with GD3) | effect on neurological symptoms (patients with GD3; listed as miglustat)
CCCCCCCC(=O)N[C@H](CN1CCCC1)[C@H](O)c1ccc2c(c1)OCCO2 [Eliglustat] | excluded from the brain | – | –
CCCCN1C[C@H](O)[C@@H](O)[C@H](O)[C@H]1CO [Miglustat] | partially distributed to the brain | ineffective for neurological symptoms | no clinical benefit
